Measurements published in the NIST ThermoML archive (doi:10.1016/j.jct.2005.09.003).

Assay: xn = mol fraction of the nth substance listed
Conditions: Liquid

CCCCCCCl [1-chlorohexane] + CCCCCCCC
mass density [kg/m3]
Conditions	x2 = 0	x2 = 0.1016	x2 = 0.1996	x2 = 0.3153	x2 = 0.3948	x2 = 0.4862	x2 = 0.5938	x2 = 0.6966	x2 = 0.794	x2 = 0.9001
318.15 K, 39620 kPa	–	–	–	–	–	–	–	–	–	728.95
328.15 K, 100 kPa	845.18	824.75	–	784.31	770.08	754.25	736.27	719.76	704.68	688.86
328.15 K, 2130 kPa	847.12	826.75	807.96	786.36	772.17	756.35	738.33	721.87	706.7	690.84
328.15 K, 4150 kPa	849.17	828.82	810.05	788.45	774.26	758.45	740.42	723.96	708.79	692.91
328.15 K, 6180 kPa	851.16	830.83	812.05	790.48	776.28	760.49	742.45	725.98	710.81	694.93
328.15 K, 8210 kPa	853.13	832.8	814.05	792.45	778.27	762.48	744.42	728	712.79	696.92
328.15 K, 10230 kPa	855.02	834.72	815.97	794.38	780.21	764.41	746.38	729.93	714.74	698.84
328.15 K, 11250 kPa	855.98	835.67	816.92	795.34	781.17	765.37	747.33	730.88	715.68	699.79
328.15 K, 12260 kPa	856.91	836.61	817.87	796.3	782.13	766.33	748.28	731.81	716.64	700.74
328.15 K, 14290 kPa	858.76	838.48	819.73	798.16	784	768.18	750.17	733.7	718.5	702.6
328.15 K, 16310 kPa	860.59	840.3	821.56	799.99	785.83	770.03	752	735.52	720.32	704.39
328.15 K, 18340 kPa	862.35	842.06	823.33	801.75	787.59	771.78	753.76	737.29	722.07	706.15
328.15 K, 20370 kPa	864.12	843.84	825.11	803.54	789.37	–	–	–	–	–
